The values below come from paper PMC8079065, “Design, synthesis and in vitro and in vivo biological evaluation of flurbiprofen amides as new fatty acid amide hydrolase/cyclooxygenase-2 dual inhibitory potential analgesic agents” (Journal of Enzyme Inhibition and Medicinal Chemistry, 2021).

Assay [1] has as its system CD1 male mice. Kind of assay: CCI neuropathic pain model, mechanical hyperalgesia (Randall-Selitto test). It is filed as in vivo. Particulars: 1 h before test, day 7 and 14. On the procedure:
(§1) The behavioural experiments were performed on CD1 male mice (25–30 g Charles Rivers-Italy). They were housed in the animal care facility of the Department Experimental of Pharmacology, University of Naples. The animals were acclimated to their environment for 1 week and had ad libitum access to standard rodent chow pellets VRF1 (purchased from Special Diet Service-SDS). All behavioural tests were performed between 9:00 AM and 13:00 PM, and the animals were only used once. Procedures involving animals and their care were conducted in conformity with international and national law and policies (EU Directive 2010/63/EU for animal experiments). The procedures reported here were approved by the Institutional Committee on the Ethics of Animal Experiments (CSV) of the University of Naples “Federico II” and by the “Ministero della Salute”, protocol no. 2014–0084607. At the end of all experiments for all pain models, the animals were euthanized by CO2 overdose.
(§2) During this study, Flu-AM4 was administered systemically (intraperitoneally) and locally (intraplantar 100 microg/paw). For systemic administration, the compound was dissolved in PEG400 20% v/v, TWEEN 80 5% (v/v) and sterile saline and used at different doses (1–3–10 mg/kg). Vehicle group was only treated with PEG, TWEEN and sterile saline. For intraplantar administration Flu-AM4 was dissolved in PEG400 10% v/v, TWEEN 80 5% (v/v) and formalin 5% in sterile saline.
Paw withdrawal threshold (PWT) to mechanical pressure was measured with a Randall-Selitto Analgesy-Meter for mice (Ugo Basile, Italy). PWT was measured on the ispsilateral paw at 1, 2, 4, 6 and 48 h post carrageenan injection. Each paw was tested twice per session. Cut-off force was set at 100 g.
(§3) Neuropathic pain was induced by ligation of the sciatic nerve as described previously. […] At day 7 and 14 Mechanical Allodynia (von Frey test) and Mechanical hyperalgesia (Randall-Selitto test) were assessed. […]

In the next assay the test system is COX-2. Kind of assay: COX-2 expression in the spinal cord of CCI-mice. It is filed as in vivo. The following applies: 10 mg/kg ip, 1 h before.
Another assay concerns T1, human recombinant COX-2.
T1 construct: purchased Cayman Chemical Co. 60122
Kind of assay: COX-2 inhibition, oxygen electrode assay. It is filed as biochemical. Particulars: 10 µM compound, 10 µM 2-AG. On the procedure: The assay was performed according to Meade et al.[58] with minor modifications. An oxygen electrode chamber with integral stirring (Oxygraph System, Hansatech Instruments, […].) was calibrated daily to ambient temperature and air pressure. The assay buffer contained 100 mM Tris-HCl buffer pH 7.4, 1 μM haematin, 2 mM phenol, 5 mM EDTA, 10 μM substrate (arachidonic acid or 2-AG) (final assay volume was 2 ml). After addition of Flu-AM4 dissolved in ethanol (final assay concentration 1%), a baseline was established for 5 min before initiation of reaction by addition of 200 units of either ovine COX-1 or human recombinant COX-2. The change in oxygen consumption as a measurement of enzyme activity was monitored for approximately 5 min.

Assay [2] deals with CD1 male mice. Kind of assay: CCI neuropathic pain model, mechanical allodynia (von Frey test). It is filed as in vivo. The following applies: 1 h before test, day 7 and 14. On the procedure:
as §1, §2, §3
To assess for changes in sensation or in the development of mechanical allodynia, sensitivity to tactile stimulation was measured using the Dynamic Plantar Aesthesiometer (DPA, Ugo Basile, Italy). […]

The next assay relates to T2, ovine COX-1.
T2 construct: purchased Cayman Chemical Co. 60100
Kind of assay: COX-1 inhibition, oxygen electrode assay. It is filed as biochemical. Particulars: 10 µM compound, 10 µM arachidonic acid. On the procedure: The assay was performed according to Meade et al.[58] with minor modifications. An oxygen electrode chamber with integral stirring (Oxygraph System, Hansatech Instruments, King’s Lynn, U.K.) was calibrated daily to ambient temperature and air pressure. The assay buffer contained 100 mM Tris-HCl buffer pH 7.4, 1 µM haematin, 2 mM phenol, 5 mM EDTA, 10 µM substrate (arachidonic acid or 2-AG) (final assay volume was 2 ml). After addition of Flu-AM4 dissolved in ethanol (final assay concentration 1%), a baseline was established for 5 min before initiation of reaction by addition of 200 units of either ovine COX-1 or human recombinant COX-2. The change in oxygen consumption as a measurement of enzyme activity was monitored for approximately 5 min.

The next assay deals with NFκB-p65. Kind of assay: NF-κB-p65 expression in the spinal cord of CCI-mice. It is filed as in vivo. Particulars: 10 mg/kg ip, 1 h before.
The test system of assay [3] is CD1 male mice. Kind of assay: Carrageenan-induced mechanical hyperalgesia (Randall-Selitto). The following applies: 10 mg/kg ip, 5 min after carrageenan. It is filed as in vivo. On the procedure:
as §1
During this study, Flu-AM4 was administered systemically (intraperitoneally) and locally (intraplantar 100 microg/paw). […]
Paw withdrawal threshold (PWT) to mechanical pressure was measured with a Randall-Selitto Analgesy-Meter for mice (Ugo Basile, Italy). PWT was measured on the ispsilateral paw at 1, 2, 4, 6 and 48 h post carrageenan injection. […]

Consider `CC(C(=O)Nc1ncccc1Br)c1ccc(-c2ccccc2)c(F)c1` (centres unmarked) [Flu-AM4, N-(3-Bromopyridin-2-yl)-2-(2-fluoro-(1,1'-biphenyl)-4-yl)propanamide], for which the “CCI-induced mechanical hyperalgesia (Randall-Selitto)” value with CD1 male mice [1] (1 mg/kg ip) is “did not show any effect”; in the assay with CD1 male mice [1] (3 mg/kg ip), “showed efficacy only at the 14-day time point in both tests”; in the assay on CD1 male mice [1] (10 mg/kg ip), “increased paw withdrawal latency in both test and in all experimental time”. The “COX-2 expression in the spinal cord” value in the assay on COX-2 was “significantly reduced this expression”. The “inhibition of cyclooxygenation of 2-AG by COX-2” value in the assay with human recombinant COX-2 is reported as “completely inhibited”. For the same molecule, the “CCI-induced mechanical allodynia (Von Frey)” value is “did not show any effect” in the assay on CD1 male mice [2] (1 mg/kg ip); “showed efficacy only at the 14-day time point in both tests” with CD1 male mice [2] (3 mg/kg ip); “increased paw withdrawal latency in both test and in all experimental time” in the assay with CD1 male mice [2] (10 mg/kg ip). The “inhibition of cyclooxygenation of AA by COX-1” value with ovine COX-1 was “only partially inhibiting”. For the same molecule, the “NFκB-p65 expression in the spinal cord” value in the assay with NFκB-p65 is given as “significantly reduced this expression”. Moreover, the carrageenan-induced paw hyperalgesia result in the assay with CD1 male mice [3] is “reduce hyperalgesia seen 2 h after carrageenan”.
